# Results reported in patent US20060246178A1, “Fermented milk product comprising tripeptide vpp and/or ipp” (priority 2003, published 2006).
# Assays:
# [1] = biological target: Angiotensin I Converting Enzyme (ACE) (Homo sapiens, UniProt P12821); details: literature (Kohmura 1990; Nakamura 1995); read-out: IC50, the concentration which results in 50% inhibition of the ACE activity; cited from earlier work
# ACE = ACE (Homo sapiens, UniProt P12821); test: ACE inhibition activity assay with fluorogenic substrate Abz-FRK(Dnp)P-OH; type: biochemical; details: standard, 5 μM end-concentration
# ACE, sequence (P12821 30-1306, species assumed): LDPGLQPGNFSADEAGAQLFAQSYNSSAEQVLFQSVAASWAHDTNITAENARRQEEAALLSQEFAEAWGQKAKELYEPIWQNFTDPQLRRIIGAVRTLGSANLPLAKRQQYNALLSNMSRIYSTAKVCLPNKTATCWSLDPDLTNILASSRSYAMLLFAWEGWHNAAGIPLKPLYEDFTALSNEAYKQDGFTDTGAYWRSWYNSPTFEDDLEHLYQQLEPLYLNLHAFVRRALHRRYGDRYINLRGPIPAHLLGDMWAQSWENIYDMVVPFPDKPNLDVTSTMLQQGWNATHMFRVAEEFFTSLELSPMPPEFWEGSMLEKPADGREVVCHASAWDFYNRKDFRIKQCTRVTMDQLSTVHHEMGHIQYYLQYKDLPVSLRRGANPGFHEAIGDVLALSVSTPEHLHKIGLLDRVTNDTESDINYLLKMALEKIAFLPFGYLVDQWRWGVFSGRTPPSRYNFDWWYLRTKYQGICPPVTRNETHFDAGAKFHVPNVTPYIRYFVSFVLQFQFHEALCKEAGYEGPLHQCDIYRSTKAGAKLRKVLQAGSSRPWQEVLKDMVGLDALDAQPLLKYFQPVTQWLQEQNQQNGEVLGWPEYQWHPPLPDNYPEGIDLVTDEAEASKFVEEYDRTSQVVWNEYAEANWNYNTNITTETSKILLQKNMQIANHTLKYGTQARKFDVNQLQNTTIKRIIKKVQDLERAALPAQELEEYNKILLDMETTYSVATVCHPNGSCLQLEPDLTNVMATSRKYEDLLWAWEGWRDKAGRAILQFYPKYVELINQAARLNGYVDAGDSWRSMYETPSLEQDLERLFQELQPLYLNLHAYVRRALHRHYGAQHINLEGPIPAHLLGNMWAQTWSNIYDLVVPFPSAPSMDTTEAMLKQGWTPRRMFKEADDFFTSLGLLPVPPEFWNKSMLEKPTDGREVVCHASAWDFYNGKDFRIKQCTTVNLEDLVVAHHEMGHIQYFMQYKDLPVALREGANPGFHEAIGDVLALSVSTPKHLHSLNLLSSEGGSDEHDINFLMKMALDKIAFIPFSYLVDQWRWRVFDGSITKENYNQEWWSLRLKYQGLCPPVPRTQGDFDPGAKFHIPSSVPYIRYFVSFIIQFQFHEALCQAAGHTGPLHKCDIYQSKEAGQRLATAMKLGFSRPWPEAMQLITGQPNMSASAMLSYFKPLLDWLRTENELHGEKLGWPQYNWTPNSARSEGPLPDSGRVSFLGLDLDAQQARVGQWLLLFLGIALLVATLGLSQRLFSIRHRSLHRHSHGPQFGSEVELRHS
# Experimental: When ACE cleaves the R—K bond of the fluorogenic substrate, the distance of the quencher (Dnp) with regard to the fluorescent group (Abz) will be enlarged resulting in a fluorescent signal.
# This signal is direct related to the ACE activity and is measured with a fluorometer.
# Samples were prepared as follows:
# The fermented milk was transferred to a centrifuge tube. The pH was adjusted to 4.0±0.1 by adding a few μl of 6 M HCl and centrifuged for 5-10 minutes at 4.000×g at room temperature (RT). The supernatant was transferred to a tube and the pH was adjusted to 7.0±0.1 by adding a few μl of 6 M NaOH. The pH-adjusted sample was transferred to an Eppendorf tube and centrifuged for ten minutes at 14.000 rpm at RT. The supernatant was transferred to a tube and ready for the ACE inhibition activity assay. If sample was not processed immediately, it was stored at −20° C.
# The slope/second is a measure for the activity of ACE.
# As a standard, Captopril (1 nM end-concentration) or IPP (5 μM end-concentration) was used.
# Angiotensin I Converting Enzyme (ACE), sequence (P12821 30-1306, species assumed): as above
inhibition of the ACE activity (ACE),Substance,IC50 [1] [µM]
–,Val-Pro-Pro [VPP],9
about 30%,Ile-Pro-Pro [IPP],5
